Experimental data as given in US20240010693A1, “PEPTIDES FROM HUMAN B-CASEIN THAT HAVE ANTI-BACTERIAL ACTIVITY” (priority 2020, published 2024).
“Also recorded” adds a separate entry of the source.

How the values were obtained:
[1] = test system: commensal Lactobacillus strains; assay: Activity against commensal strains; assay type: cell-based; conditions: strains commonly found in infant and adult gut
S. aureus (MRSA) = assay: Killing of pathogenic bacteria; assay type: cell-based
Procedure: (§1) All three peptides were tested using direct kills assays. Equal inoculums of indicated bacterial pathogens were incubated either with water (−) or 50 mg/ml of HBCA1, HBCA2 or HBCA2.C. Aliquots were spotted at T=0 min (start of incubation) and at 30 minutes post incubation (T=30 min) on LB-agar plates, and incubated at 37° C. overnight to see growth.

E. coli (EHEC) = assay: Killing of pathogenic bacteria; assay type: cell-based
Procedure: as §1

E. faecalis = assay: Killing of pathogenic bacteria; assay type: cell-based
Procedure: as §1

L. monocytogenes = assay: Killing of pathogenic bacteria; assay type: cell-based
Procedure: as §1

S. enteritidis = assay: Killing of pathogenic bacteria; assay type: cell-based
Procedure: as §1

Porphyromonas gingivalis = assay: Kill assay on TSA plates (5% difibrinated blood); assay type: cell-based
Source text: Porphyromonas gingivalis (a keystone pathogen in chronic periodontitis, and identified in the brains of Alzheimer's patients) is sensitive to HBCA1 and HBCA2 peptides.

[2] = test system: commensal Bifidobacterium strains; assay: Activity against commensal strains; assay type: cell-based; conditions: strains commonly found in infant and adult gut
G. vaginalis = assay: Direct kill assay on HBT bilayer Gardnerella media; assay type: cell-based, Gardnerella vaginalis
Procedure: When we subjected G. vaginalis to direct kill assays using HBCA1 and HBCA2, we observed that both peptides render G. vaginalis non-viable within 30 minutes, as indicated by loss of bacterial growth on HBT bilayer Gardnerella media (FIG. 9).

[3] = test system: above-mentioned bacterial strains; assay: Spot assays on bacterial lawns and direct kill assays of synthetic peptides; assay type: cell-based
Procedure: The fractions were dried and reconstituted in water and spotted onto Tryptic soy agar plates that were spread with 100 μL of select bacterial grown overnight in tryptic soy broth.
We have named them HBCA1 and HBCA2.
as §1

K. pneunomiae = assay: Killing of pathogenic bacteria; assay type: cell-based, K. pneumoniae
Procedure: as §1

P. aeruginosa = assay: Direct kill assay; assay type: cell-based
Procedure: as §1

[4] = test system: indicated bacterial pathogens; assay: Direct kill assay; assay type: cell-based; conditions: 50 mg/ml
Procedure: as §1

K. pneumoniae = assay: Activity on TSA plates (FIG. 16); assay type: cell-based; conditions: 20 mg/ml and 10 mg/ml on TSA plates
Procedure: FIG. 16 depicts activity of HBCA2 peptide against K. pneumoniae at 20 mg/ml and 10 mg/ml on TSA plates.

Sequence	activity against commensal Lactobacillus strains [1]	killing of S. aureus (MRSA) (S. aureus (MRSA))	killing of E. coli (EHEC) (E. coli (EHEC))	killing of E. faecalis (E. faecalis)	killing of L. monocytogenes (L. monocytogenes)	killing of S. enteritidis (S. enteritidis)	killing of Porphyromonas gingivalis (Porphyromonas gingivalis)	sensitivity of P. gingivalis (Porphyromonas gingivalis)	speed of loss of viability of P. gingivalis (Porphyromonas gingivalis; upon mixing cells with peptide)	activity against commensal Bifidobacterium strains [2]	killing of Gardnerella vaginalis (G. vaginalis)	antibacterial activity [3]	killing / viability of K. pneumoniae (K. pneunomiae)	killing of P. aeruginosa (P. aeruginosa)	loss of viability of P. aeruginosa (P. aeruginosa; 50 mg/ml, T=0 min)	relative activity of the peptides in direct kill assays [4]	relative potency against K. pneumoniae (K. pneumoniae)
RVMPVLKSPTIP (listed as Homo sapiens) [HBCA2]	no detected activity	kills	kills	kills	kills	kills	kills	sensitive	rapid killing; also recorded: rapidly lose viability right at 0 minutes	no detected activity	kills	showed antibacterial activity	kills	kills	rapidly lost (while mixing at T0)	more potent in its activity than the larger HBCA1 peptide	
RVRPKLKSPRIP [HBCA2.4]																	most potent of the HBCA peptides
TVYTKGRVMPVLKSPTIPFFDPQI (listed as Homo sapiens) [HBCA1]								sensitive				showed antibacterial activity					
